The values that follow come from the METLIN SMRT retention time set (Domingo-Almenara et al. 2019).

SMILES strings stand for the structures.

The data set in a line: gradient 5% acetonitrile 3 min, to 50% in 2 min, to 85% in 15 min, held 3 min, 100 µL/min. Conditions: column: Zorbax Extend-C18 2.1 x 50 mm; eluents: water / acetonitrile, 0.1% formic acid. Summed up: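 The mobile phases were water and acetonitrile, each with 0.1% formic acid, pumped at 100 μL/min through a Zorbax Extend-C18 column (2.1 × 50 mm, 1.8 μm). Pure standards were injected as mixtures of ~100 molecules and detected by a quadrupole time-of-flight mass spectrometer in positive and negative ionization mode. Retention time came from computationally picked adduct peaks, each inspected by hand.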
For `COc1cccc(-c2n[nH]c3c2C(c2ccc(OC)cc2OC)NC3=O)c1` (centres undefined), the RP-LC retention time was found to be 753 s.

`COc1ccc(-n2c(=O)c3sccc3n(Cc3nc(-c4ccc(C)c(C)c4)no3)c2=O)cc1` yielded an RP-LC retention time of 1090 s. With `COc1ccc(CNC(=O)C2CCCN(c3nccnc3Sc3ccccc3)C2)c(OC)c1` (centres undefined) the figure was 1020 s; with `COc1ccc(NC(=O)C2CCCN(c3cnc4nccnc4c3)C2)cc1` (centres undefined), 698 s. With `Cn1cccc1C(=O)NCCn1c(=O)n(Cc2ccccc2)c2cccnc21` the figure was 767 s. With `CC(C)(C)c1ccc(S(=O)(=O)Nc2cccc(C(=O)O)c2)cc1` the figure was 810 s; with `CCC(C(=O)N1CCN(C)CC1)n1c2ccccc2c2cnn(C)c(=O)c21` (centres undefined), 627 s; with `O=C1CCCC(=O)N1CCS(=O)(=O)N1CCN(Cc2nc3ccccc3[nH]2)CC1`, 554 s.

Compound `O=C(CN1C(=O)CCSc2ccccc21)Nc1ccc2c(c1)OCO2` had an RP-LC retention time of 627 s. As for `CCCCn1cc(S(=O)(=O)NCc2ccc(C)cc2)c2cccnc21`, the figure is 984 s; as for `Cc1cccc2c1CCN(C(=O)c1ccco1)[C@@H]2C`, 931 s. As for `CCCC(=O)NCCc1c(I)[nH]c2ccc(OC)cc12`, the figure is 849 s; as for `Cc1cccc(-c2noc(Cn3c(=O)n(Cc4ccco4)c(=O)c4ccccc43)n2)c1`, 1090 s; as for `CCOc1ccc(-c2nc(C3CC(=O)N(c4ccc(F)cc4)C3)no2)cc1OCC` (centres undefined), 1050 s. With `O=C(O)c1cc(-c2ccc(Br)s2)nc2ccccc12` the figure was 1110 s; with `O=c1c2cc(-c3cccs3)nn2ccn1CC(O)c1cccc(Cl)c1` (centres undefined), 924 s. Compound `O=C(NCCN1CCCC1)C1CCN(c2cnn(CC3CC3)c(=O)c2)C1` (centres undefined) yielded an RP-LC retention time of 577 s. With `O=C(Cn1nc(Cc2cccnc2)c2ccccc2c1=O)Nc1ccc(Cl)cn1` the figure was 608 s. In turn, `CCn1c(C)cc(=O)c2cc(C(=O)Nc3nc(C)c(C)s3)ccc21` came in with an RP-LC retention time of 578 s. As for `Cc1ccc(CNC(=O)Cn2c(N3CCCC3)nc(C)cc2=O)cc1`, the figure is 618 s; as for `O=C(Nc1cn(-c2ccc(C(=O)N3CCN(c4ccccc4)CC3)cc2)cn1)C1CC1`, 728 s; as for `O=C(CN1C(=O)c2cccnc2Oc2ccccc21)NCCc1c[nH]c2ccccc12`, 766 s.

`Cc1ccc(-c2cc(=O)n3c4ccccc4n(CC(=O)NC4CCCC4)c3n2)cc1` came in with an RP-LC retention time of 942 s. As for `COc1ccc(Cl)cc1C(=O)NCCOc1ccc(F)cc1`, the figure is 925 s; as for `COc1ccc(-c2nc(CCNS(=O)(=O)c3ccc(Cl)s3)cs2)cc1OC`, 918 s. With `CCNC(=O)C1CCCN(c2nc3ncn(CC(=O)Nc4ccc5c(c4)OCO5)c(=O)c3s2)C1` (centres undefined) the figure was 649 s; with `Cc1noc(-c2cc(=O)n(CC(=O)Nc3cccc(C)c3C)c3ccccc23)n1`, 890 s.

Take `Cc1ccc(S(=O)(=O)N2C(=O)CCC2C(=O)N(C)C2CCCCC2)cc1C` (centres undefined): the RP-LC retention time is 1010 s. With `CC(C)c1nc(CNC(=O)c2ccc(Cl)cc2)no1` the figure was 785 s; with `Cc1cc(=O)n2nc(-c3ccc(Cl)cc3)nc2n1CC(=O)N1CCN(c2ccc(F)cc2)CC1`, 933 s; with `CCC(C(=O)N1CCN(CC)CC1)n1c2ccccc2c2cnn(C)c(=O)c21` (centres undefined), 619 s. With `O=C(CCNc1cnc2cnccn12)Nc1ccc(N2CCOCC2)cc1` the figure was 534 s; with `C=C(C)CN1CC[C@]23c4c5ccc(O)c4O[C@H]2c2[nH]c4ccccc4c2C[C@@]3(O)[C@H]1C5`, 647 s; with `CCn1cc(C(=O)Nc2cccc(C(C)=O)c2)c2nn(-c3ccccc3)c(=O)c-2c1`, 808 s.

`O=C1C(c2cccnc2)N(Cc2ccco2)C(=O)CN1c1ccccc1` (centres undefined): the RP-LC retention time is 619 s. As for `Cc1oc(-c2[nH]ncc2C(=O)N(C)C)cc1S(=O)(=O)NCc1ccccc1Cl`, the figure is 693 s. As for `Cc1ccc2oc(=O)n(Cc3noc(C(=O)NCC(C)c4ccccc4)n3)c2c1` (centres undefined), the figure is 992 s. For `Cc1cc(NC(=O)CSc2cc(N3CCCC3)ncn2)ccc1Br`, the RP-LC retention time amounted to 842 s. As for `CN(C(=O)CC(=O)Nc1ccc2nc3n(c(=O)c2c1)CCCCC3)c1cccc(C(F)(F)F)c1`, the figure is 771 s; as for `CC(CCc1ccccc1)NC(=O)C1CCN(c2cc(Oc3ccccc3)ncn2)CC1` (centres undefined), 998 s; as for `Cc1ccnc(Nc2nc(CC(=O)NCCc3cccs3)cs2)c1`, 581 s. With `CC(Cc1ccco1)NC(=O)c1cccn(C)c1=O` (centres undefined) the figure was 649 s; with `CCOC(=O)CC(=O)CSc1nnc(CNC(=O)c2ccc(F)cc2)o1`, 678 s; with `O=C(NCCc1ccccc1)N1CCN(CCn2c(-c3ccncc3)nc3cccnc32)CC1`, 593 s. With `CC(C)CNC(=O)CCn1c(=O)c2ccccc2n2c(=O)n(Cc3cccc(F)c3)nc12` the figure was 867 s; with `CCCn1c(=O)c(C)nc2cc(-c3noc(COc4ccc(F)cc4)n3)ccc21`, 1060 s. `O=C(c1cccs1)N1CCN(c2ccc(-c3noc(C4CC4)n3)cc2)CC1` had an RP-LC retention time of 949 s.

On to `Cc1ccc(-c2nc(C3CC(=O)N(c4ccc(C)cc4)C3)no2)cc1` (centres undefined), for which the RP-LC retention time is 1080 s. With `CSc1cccc(NC(=O)N2CC=C(c3cn(C)c4ncccc34)CC2)c1` the figure was 873 s; with `CCOc1ccc(-n2ccn3c(CC(C)CC(=O)NCC(C)C)nnc3c2=O)cc1` (centres undefined), 683 s; with `Cc1nc(-c2csc(S(=O)(=O)N3CCC(C(=O)Nc4cccc(F)c4)CC3)c2)no1`, 925 s.

On to `O=S(=O)(c1ccc(-c2ccno2)s1)N1CCN(c2ccccn2)CC1`, for which the RP-LC retention time was 680 s. As for `O=C(NC1CCCCCC1)C1CCCN(c2ncc(-c3ccc(F)cc3)cn2)C1` (centres undefined), the figure is 1150 s; as for `Cc1c(Cl)cccc1NC(=O)C(=O)NC1CCCC1`, 964 s. `Cc1ccc(NC(=O)NCC2CCOCC2)c(Cl)c1` came in with an RP-LC retention time of 720 s. As for `O=C(NC1CCCCC1)C1c2ccccc2C(=O)N1Cc1ccc2c(c1)OCO2` (centres undefined), the figure is 860 s; as for `O=C(CSc1ccc(NC(=O)c2ccco2)cc1)Nc1nc(-c2ccccc2)cs1`, 966 s; as for `COC(=O)c1ccc2c(=O)n(-c3cccc(C)c3)c(N3CCCCC3)nc2c1`, 1240 s.

Consider `CC(=O)c1ccc(NC(=O)CNS(=O)(=O)c2ccc(C(C)(C)C)cc2)cc1`, for which the RP-LC retention time amounted to 663 s.

Compound `CCN(CC)CCNC(=O)c1nn(-c2ccc(Cl)cc2)c2c1CCc1cc(OC)ccc1-2` showed an RP-LC retention time of 774 s. With `O=C(Nc1ccc(F)c(Cl)c1)C1CCc2sc(C(=O)N3CCOCC3)cc2C1` (centres undefined) the figure was 807 s.

Compound `COc1cccc(-c2noc(C3CCCN3C(=O)Nc3ccccc3)n2)c1` (centres undefined) returned an RP-LC retention time of 961 s.

With `CC(C)OCCCNC(=O)c1nnc(-c2ccc(S(=O)(=O)N3CCCC3)cc2)o1`, the RP-LC retention time worked out at 843 s.

Regarding `Cc1cc(C(=O)N2CCCn3ccnc3C2c2cnn(C)c2)c(C)o1` (centres undefined), the RP-LC retention time was 587 s. As for `CC1CCCCN1CCNC(=O)c1ccc(-c2ccnc(N3CCCC3)n2)cc1` (centres undefined), the figure is 1230 s; as for `COCCN1C(=O)CCc2cc(NS(=O)(=O)c3ccccc3F)ccc21`, 726 s. As for `CCc1nc2sc(C(C)C)nn2c1S(=O)(=O)N1CCSCC1`, the figure is 962 s; as for `O=C(O)C1CCN(S(=O)(=O)c2ccc(Cl)c(-c3nnc(-c4ccccc4)o3)c2)CC1`, 887 s. In turn, `COc1cccc(CNC(=O)c2ccc3c(c2)nc2n3CCN(C3CCCCC3)C2=O)c1` came in with an RP-LC retention time of 774 s.

In turn, `CCc1nnc([C@@H]2CC(F)(F)CN2C(=O)COc2ccc(F)cc2)o1` registered an RP-LC retention time of 800 s.

In the case of `CCOc1ccc(-n2c(=O)c3sccc3n(Cc3nc(-c4ccc(F)cc4)no3)c2=O)cc1`, the RP-LC retention time was determined as 982 s. As for `CCNC(=O)NC1CCN(C(=O)C2CCC2)C1` (centres undefined), the figure is 578 s. With `CC(C)Cn1cc(S(=O)(=O)Nc2ccccc2Cl)c2cccnc21` the figure was 1020 s.

Compound `COC(=O)Nc1ccc(S(=O)(=O)N2CCCC(C(F)(F)F)C2)cc1` (centres undefined) showed an RP-LC retention time of 837 s. As for `CN(CCc1noc(-c2ccc(F)cc2)n1)C(=O)Nc1ccc(F)cc1F`, the figure is 874 s; as for `O=C(NCCc1csc(C2CCCN(C(=O)C3CCC3)C2)n1)C1CCC1` (centres undefined), 719 s; as for `CC(=O)Nc1ccc(NC(=O)c2nn(-c3ccc(F)cc3)c3ccccc3c2=O)cc1`, 778 s.

In turn, `O=C(CCn1nnc2cc(-c3noc(Cc4ccccc4Br)n3)ccc21)N1CCOCC1` had an RP-LC retention time of 860 s. Consider `Cc1cc(-c2nnc(-c3ccco3)o2)c(C)n1CC(=O)NCc1ccc(F)c(Cl)c1`, for which the RP-LC retention time is 882 s.
